From patent US7741464B2, “Compositions and methods of using CRMP-1 and its fragments for treating cancer” (Advpharma Inc., priority 2007, dated 2010)
Where two headings read alike, the source gives them in different places.

Tests used:
[1] = system: transient transfected colorectal cell lines (Caco-2, CC-M1, DLD-1); assay: Chemosensitivity of transient transfectants (cell counting); assay type: cell-based, human; conditions: with pNCRMP1 or pNCN3 transient transfected colorectal cell lines; data not shown
Experimental: (§1) Six human cancer cell lines, including human colon cancer cell lines Caco-2, CC-M1, DLD-1; human prostate cancer cell lines DU145, PC-3; and human breast cancer cell line MCF-7, were tested in an experiment on improvement of chemosensitivity. Two expression plasmids, pNCRMP1 and pNCN3, and the pCI-neo vector (control plasmid), were used for transfection, respectively. The general cultivation conditions and transfection procedures were the same as described in Example 3.
(§2) Treatment of transient transfected cell lines using chemical agent was immediately performed as follows, and quantification of viable cells was performed by counting using hemocytometer after 3-days incubation at 37° C.: • (1) Three types of transient transfected human colorectal cancer cells were treated with 5-fluorouracil; • (2) The transient transfected human prostate cancer cell line DU145 was treated with Adriamycin™ (doxorubicin), cyclophosphamide and etoposide; • (3) The transient transfected human prostate cancer cell line PC3 was treated with cyclophosphamide, etoposide, and paclitaxel; and, • (4) The transient transfected human breast cancer cell line MCF-7 was treated with Adriamycin™ (doxorubicin) and paclitaxel.

[2] = system: PC-3 transient transfectants; assay: as above; assay type: cell-based; conditions: Homo sapiens, 72 h
Experimental: as §1, §2

[3] = system: DU145 transient transfectants; assay: as above; assay type: cell-based, human; conditions: read-out: IC50 of chemical agent
Experimental: as §1, §2

[4] = system: poorly differenciated human lung adenocarcinoma cells; conditions: cells established from a patient; Shih et al., J. Natl. Cancer Inst. 93(18) (2001); cited from earlier work
[5] = system: PC-3 cells; assay: Antiproliferative effect after transient transfection; assay type: cell-based, human; conditions: PC-3, transient transfection, 5-days incubation, normalized to pCI-neo control plasmid
Source text: (§3) All cell lines were purchased from Food Industry Research and Development Institute (FIRDI), Hsinshu, Taiwan. They were originated from different tissues or organs, including: • (1) human lung cancer cells: adenocarcinoma A549 (BCRC60074), squamous cell carcinoma H520 (BCRC60124), and large-cell carcinoma H460 (CCRC600373), • (2) human prostate cancer cell: adenocarcinoma PC-3 (CCRC60112) and carcinoma DU145 (CCRC60348) isolated from metastatic brain site; • (3) human colon cancer cells: adenocarcinoma SW 480 (CCRC60249), CC-M1 (BCRC60448), and DLD-1 (CCRC60132); • (4) human breast cancer cells: ductal carcinoma BT-474 (CCRC 60359), MCF-7 (CCRC60436), and ZR-75-1 (CCRC60055); • (5) Chinese hamster lung cell V79-4 (BCRC60183), and • (6) human prostate normal cell PZ-HPV-7 (CCRC60136).
(§4) The cultivation of cell lines was as described as the instruction provided by Food Industry Research and Development Institute (FIRDI), while 10% fetal bovine serum (JRH Biosciences, USA) was supplemented as final concentration, if necessary. The human prostate normal cell line PZ-HPV-7 was maintained in Keratinocyte-SFM medium (Life Technologies, Inc., US).
(§5) Mammalian cells were seeded to 6-well plate (Corning Inc., USA) with a cell density of 2˜8×10^5 and incubated at 37° C. for overnight prior to transfection. Each cell line was respectively transfected with the pCI-neo Mammalian Expression Vector (as control plasmid; Promega, USA) or with the hCRMP-1-related expression plasmid by using Lipofectamine™ Reagent (Invitrogen, #18324-020). A series of expression plasmid containing full-length or partial gene fragment of hCRMP-1, were pNCRMP1, pNCN1, pNCN3, pNCN4, pNCN5, pNCN6, and pNCN7, whose constructions were described in Example 1 and Example 2.
(§6) The nomenclature of transfected cell line was according to the cell line and expression plasmid and characterized as “cell line/expression plasmid.” Quantitation of viable cells after transfection was performed by using hemocytometer after 5-days incubation at 37° C. (R. Ian Freshney: Culture of Animal Cells, A Manual of Basic Technique, Chapter 20, pp. 309-312, WILEY-LISS, Canada (2000)).
(§7) The antiproliferative effect (in percentage) of each cell line transfected with individual expression plasmid was normalized with the same cell line transfected with control plasmid as follows: Antiproliferative effect=100%×(1−(number of cells transfected with expression plasmid÷number of cells transfected with control plasmid))

[6] = system: H460 cells; assay: as above; assay type: cell-based, human; conditions: viable cells counted after 5-days incubation, normalized to pCI-neo control plasmid
Source text: as §3, §4, §5, §6, §7

[7] = system: DU145 cells; assay: as above; assay type: cell-based, human; conditions: for selectivity on antiproliferative ability: prostate cancer cells (PC-3, DU145) vs human prostate normal cell line PZ-HPV-7
Source text: as §3, §4, §5, §6, §7

[8] = system: MCF-7 cells; assay: as above; assay type: cell-based, human; conditions: MCF-7, transient transfection, 5-days incubation, normalized to pCI-neo control plasmid
Source text: as §3, §4, §5, §6, §7

[9] = system: CC-M1 cells; assay: as above; assay type: cell-based, human; conditions: 5-days incubation, normalized to pCI-neo control plasmid
Source text: as §3, §4, §5, §6, §7

[10] = system: H520 stable transfectants; assay: Chemosensitivity (MTT cytotoxicity) of stable transfectants; assay type: cell-based; conditions: Homo sapiens, read-out: IC50 of chemical agent
Source text: Three human cancer cell lines, including lung cancer cell line H520 and two human prostate cancer cell lines (PC-3 and DU145) were applied for selection of stable transfectants. Four expression plasmids, including pNCRMP1, pNCN1, pNCN3, and pNCN4, and the pCI-neo vector (as control plasmid) were used for transfection, respectively. The general cultivation condition and transfection procedures were the same as described in Example 3. The transfected cells were further cultivated under the same conditions as their parental cell lines and selected with 0.6-1 mg antibiotic G418 per ml (Kao et al., Oncogene 16: 546-554 (1998); Xiaolin et al, Cancer Research 65: 9762-9770 (2005)).
Three agents, including caffeic acid phenethyl ester (CAPE; Sigma, US), Adriamycin™ (doxorubicin) (Pharmacia & Upjohn S.P.A. Milan, Italy), and paclitaxel (Taxol; Bristol-Myers Squibb Co., Wallingford, Conn.), were dissolved in DMSO (dimethyl sulfoxide; Sigma) for preparation of stock solution, respectively. A serial dilution was prepared with DPBS buffer for chemosensitivity tests. The human lung squamous carcinoma stable transfectants H520 were treated with both CAPE and Adriamycin™ (doxorubicin) for four different concentrations, e.g. 0.05, 0.01, 0.002, and 0.0004 mM, while the administering of paclitaxel was performed at different concentrations, e.g. 1000, 200, 40, and 8 nM. Both types of prostate stable transfectants were only treated with paclitaxel for eight concentrations ranging from 0.1 mM to 1.28 nM with 1/5 dilution each step.
MTT (3-(4,5-dimethylthiazol-2-yl)-2,5-diphenyltetrazolium bromide; Sigma, Inc.) assay (Monks et al., J. Natl. Cancer Inst. 83:757-766 (1991); Paull et al, J. Natl. Cancer Inst. 81:1088-1092 (1989)) was applied for studying the cytotoxic effect of indicated agent. The absorbance was measured both at 545 nm and at 690 nm (served as reference) using the 96-well spectrophotometer reader (Emax, Molecular Device Inc., California, US) (Chen et al., Yi Xue Za Zhi (Taipei) 46:7-16 (1990)). The relative growth inhibition was calculated as follows: Relative growth inhibition=100%×(1−(OD545nm (Treated cells)−OD690nm(Treated cells))÷(OD545nm(untreated cells)−OD690nm(untreated cells)))
The 50% inhibition concentration (IC50) was determined after graphical plotting of spectrophotometric measurements and interpolation by EXCEL software.

[11] = system: MCF-7 transient transfectants; assay: Chemosensitivity of transient transfectants (cell counting); assay type: cell-based; conditions: Homo sapiens, MCF7, 72 h, read-out: IC50 of chemical agent
Experimental: as §1, §2

[12] = Homo sapiens, DU-145, 72 h, transient transfectant DU145/pCIneo (control plasmid), 3-days incubation
[13] = Homo sapiens, DU-145, 72 h, transient transfectant DU145/pNCN3, 3-days incubation
[14] = Homo sapiens, DU-145, 72 h, transient transfectant DU145/pNCRMP1, 3-days incubation
[15] = NCI-H520, stable transfectant H520/pCI-neo/1 (control plasmid), MTT
[16] = NCI-H520, stable transfectant H520/pNCN1/1, MTT
[17] = NCI-H520, stable transfectant H520/pNCN3/1, MTT
[18] = NCI-H520, stable transfectant H520/pNCN4/1, MTT
[19] = NCI-H520, stable transfectant H520/pNCRMP1/1, MTT

## O=c1[nH]cc(F)c(=O)[nH]1 [5-fluorouracil]
[1]
  improvement of chemosensitivity: no improvement of chemosensitivity

## O=P1(N(CCCl)CCCl)NCCCO1 (centres unmarked) [Cyclophosphamide, cyclophosphamide]
[2]; read-out: IC50 of chemical agent, transient transfectant PC-3/pCIneo (control plasmid), 3-days incubation
  IC50: > 100000 nM
[2]; read-out: IC50 of chemical agent, transient transfectant PC-3/pNCN3, 3-days incubation
  IC50: 55000 nM
[2]; read-out: IC50 of chemical agent, transient transfectant PC-3/pNCRMP1, 3-days incubation
  IC50: > 100000 nM
[3]; Homo sapiens, DU-145, 72 h
  IC50: > 100000 nM
[3]; transient transfectant DU145/pCIneo (control plasmid), 3-days incubation
  IC50: > 100000 nM
[3]; transient transfectant DU145/pNCN3, 3-days incubation
  IC50: > 100000 nM

## full-length hCRMP-1: human collapsin response mediator protein-1, full-length protein with 572 amino acids (SEQ ID NO: 1)
[4]
  antiproliferative activity: no antiproliferative activity
[5]
  Anti-proliferation effect: inhibits cancer cell proliferation
[6]
  Anti-proliferation effect: inhibits cancer cell proliferation
[6]; listed as full-length CRMP-1
  Anti-proliferation effect: has antiproliferative activity
[7]; DU145, transient transfection, 5-days incubation, normalized to pCI-neo control plasmid
  Anti-proliferation effect: inhibits cancer cell proliferation
[8]
  Anti-proliferation effect: inhibits cancer cell proliferation
[9]
  Anti-proliferation effect: inhibits cancer cell proliferation

## COc1cc([C@@H]2c3cc4c(cc3[C@@H](O[C@@H]3O[C@@H]5CO[C@@H](C)O[C@H]5[C@H](O)[C@H]3O)[C@H]3COC(=O)[C@H]23)OCO4)cc(OC)c1O [Etoposide, etoposide]
[2]; transient transfectant PC-3/pCIneo (control plasmid), 3-days incubation, read-out: IC50 of chemical agent
  IC50: 64000 nM
[2]; transient transfectant PC-3/pNCN3, 3-days incubation, read-out: IC50 of chemical agent
  IC50: > 100000 nM
[2]; transient transfectant PC-3/pNCRMP1, 3-days incubation, read-out: IC50 of chemical agent
  IC50: 33000 nM
[3]; [12]
  IC50: 460 nM
[3]; [13]
  IC50: 710 nM
[3]; [14]
  IC50: 710 nM

## O=C(/C=C/c1ccc(O)c(O)c1)OCCc1ccccc1 [CAPE, caffeic acid phenethyl ester]
[10]; [15]
  IC50: > 50000 nM
[10]; [16]
  IC50: 23000 nM
[10]; [17]
  IC50: 29000 nM
[10]; [18]
  IC50: 27000 nM
[10]; [19]
  IC50: 17000 nM

## CN3: active fragment of hCRMP-1, 208-480 of SEQ ID NO: 1 (SEQ ID NOS: 17 and 39)
[7]
  selectivity on antiproliferative ability: around 20%

## COc1cccc2c1C(=O)c1c(O)c3c(c(O)c1C2=O)C[C@@](O)(C(=O)CO)C[C@@H]3O[C@H]1C[C@H](N)[C@H](O)[C@H](C)O1 [Adriamycin ™ (doxorubicin), doxorubicin]
[10]; [15]
  IC50: 740 nM
[10]; [16]
  IC50: < 400 nM
[10]; [17]
  IC50: < 400 nM
[10]; [18]
  IC50: 500 nM
[10]; [19]
  IC50: < 400 nM
[11]; transient transfectant MCF-7/pCIneo (control plasmid), 3-days incubation
  IC50: 2130 nM
[11]; transient transfectant MCF-7/pNCN3, 3-days incubation
  IC50: 320 nM
[11]; transient transfectant MCF-7/pNCRMP1, 3-days incubation
  IC50: 100 nM
[3]; [12]
  IC50: 73 nM
[3]; [13]
  IC50: 60 nM
[3]; [14]
  IC50: 79 nM

## CN7: active fragment of hCRMP-1, 458-572 of SEQ ID NO: 1 (SEQ ID NOS: 25 and 43)
[7]
  selectivity on antiproliferative ability: 28%
